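Tested at 5 concentrations; 48 h exposure; 96-well plates; endpoints linearly interpolated, else capped at highest concentration. GI50: concentration for 50% inhibition of growth.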 Activity calls are given as the source filed them. Rule as the data show it: active = GI50 up to about 1.1 µM and inactive = higher.

Some test systems named below: 786-0; MDA-MB-231; A498; SNB-75; MDA-MB-435; MDA-N; TK-10; Hs-578T; DU-145; SK-MEL-2; T47D; SW-620; HT-29; NCI/ADR-RES; SF-539; PC-3; CCRF-CEM; SR; CAKI-1; RXF 393.
Assay in all cases: inhibition of tumour cell growth, NCI panel, 48 h

Turning to `C[C@H](C/C=C/C(C)(C)O)[C@H]1CC[C@@]2(C)[C@@H]3CC[C@H]4C(C)(C)[C@@H](O)CC[C@@]45C[C@@]35CC[C@]12C`, the GI50 with 786-0 was 20.9 µM (inactive); in the test with MDA-MB-231, 15.4 µM (inactive); in the test on A498 it was 21 µM (inactive); with SNB-75 it was 20.3 µM (inactive); in the test with MDA-MB-435, 20.5 µM (inactive); with MDA-N, 34.1 µM (inactive). Moreover, the GI50 is 13 µM (inactive) in the test on TK-10; 11.2 µM (inactive) with Hs-578T; 15.4 µM (inactive) in the test with DU-145; 17.3 µM (inactive) with SK-MEL-2; 27 µM (inactive) in the test on T47D; 18.4 µM (inactive) in the test with SW-620. Also, the GI50 is 26 µM (inactive) in the test with HT-29, 5.14 µM (inactive) with NCI/ADR-RES, 16.8 µM (inactive) with SF-539 and 26.3 µM (inactive) in the test with PC-3.
As for `CC1(C)OCC2OC3([C@H](O)CCO)OC(C)(C)OC3C2O1` (some centres not stated), the GI50 in the test on 786-0, in the test on MDA-MB-231, in the test with A498, in the test with CCRF-CEM, in the test with SNB-75 and in the test on MDA-MB-435 was > 100 µM (inactive) in each case. Further, the GI50 with MDA-N, in the test with SR, in the test with CAKI-1, in the test on RXF 393, with DU-145 and in the test on SK-MEL-2 was > 100 µM (inactive) in each case. Further, the GI50 in the test on T47D, in the test on SW-620, in the test with HT-29, with NCI/ADR-RES, in the test with SF-539 and in the test with PC-3 was > 100 µM (inactive) in each case.
Regarding `CC1CN=C(N(C(=O)Nc2ccccc2)c2ccc(Cl)c(Cl)c2)S1` (configuration not stated), the GI50 was 31.1 µM (inactive) with 786-0; 18.2 µM (inactive) in the test on MDA-MB-231; 14.3 µM (inactive) in the test with A498; > 10 µM (inactive) in the test with CCRF-CEM; > 100 µM (inactive) in the test on SNB-75; > 10 µM (inactive) in the test with MDA-N. Further, the GI50 with SR was 24.4 µM (inactive); with TK-10, 28.2 µM (inactive); with Hs-578T, 65 µM (inactive); in the test with CAKI-1, 27.9 µM (inactive); in the test on DU-145, 45.8 µM (inactive); in the test with SK-MEL-2 it was 18.9 µM (inactive). In addition, the GI50 in the test with T47D was 14.4 µM (inactive); in the test on SW-620, 30.5 µM (inactive); in the test with HT-29, 16.1 µM (inactive); in the test with NCI/ADR-RES, 20.7 µM (inactive); in the test on SF-539, 40.5 µM (inactive); with PC-3 it was 26.8 µM (inactive).
Turning to `Cc1c2ccccc2cc2cccc[n+]12`, the GI50 was 61.8 µM (inactive) in the test on 786-0; 37.7 µM (inactive) in the test with MDA-MB-231; 31.9 µM (inactive) with CCRF-CEM; 21.9 µM (inactive) with SNB-75; 36 µM (inactive) in the test with MDA-MB-435; 37.8 µM (inactive) with MDA-N. The GI50 was 12.6 µM (inactive) with SR; 39.8 µM (inactive) in the test on TK-10; 25.6 µM (inactive) with Hs-578T; 23.3 µM (inactive) with RXF 393; 61.4 µM (inactive) in the test on DU-145; 41.3 µM (inactive) in the test on SK-MEL-2. Moreover, the GI50 with SW-620 is 8.34 µM (inactive); in the test with HT-29, 29.2 µM (inactive); with NCI/ADR-RES, > 100 µM (inactive); in the test on SF-539, 32.1 µM (inactive); in the test with PC-3 it was 30 µM (inactive).
In the case of `CCOC(CNc1nn2c(C)nnc2s1)OCC`, the GI50 in the test on 786-0, in the test on MDA-MB-231, in the test with A498, with CCRF-CEM, in the test on SNB-75 and in the test on MDA-MB-435 was > 100 µM (inactive) in each case. The GI50 in the test with MDA-N, in the test with SR, in the test with TK-10, with Hs-578T, with CAKI-1 and in the test with RXF 393 was > 100 µM (inactive) in each case. The GI50 in the test with DU-145, in the test on SK-MEL-2, in the test on SW-620, with HT-29, in the test on NCI/ADR-RES and in the test on SF-539 was > 100 µM (inactive) in each case. Besides, the GI50 in the test on PC-3 is > 100 µM (inactive).
Take `COc1cc(/C=C2\CCC(C)c3c2nc(N)c(C#N)c3-c2cc(OC)c(OC)c(OC)c2)cc(OC)c1OC` (configuration not stated): the GI50 was 37.4 µM (inactive) in the test on 786-0; 37.2 µM (inactive) with MDA-MB-231; > 100 µM (inactive) in the test with A498; 23.7 µM (inactive) in the test on CCRF-CEM; 0.165 µM (active) in the test on SNB-75; > 100 µM (inactive) in the test with MDA-MB-435. In addition, the GI50 in the test on MDA-N was > 100 µM (inactive); with SR it was 25.8 µM (inactive); with TK-10, 75.3 µM (inactive); in the test on Hs-578T it was 18.7 µM (inactive); with CAKI-1, > 100 µM (inactive); with RXF 393, 73.3 µM (inactive). Moreover, the GI50 is 55.2 µM (inactive) in the test on DU-145; > 100 µM (inactive) in the test on SK-MEL-2; 81.8 µM (inactive) in the test with SW-620; 33.3 µM (inactive) in the test with HT-29; 55.1 µM (inactive) in the test on PC-3.
Take `O=c1c(Cc2ccc(Cl)cc2)nnc2sc(-c3ccc([N+](=O)[O-])cc3)nn12`: the GI50 was 33.3 µM (inactive) in the test with 786-0; 21 µM (inactive) with MDA-MB-231; 20 µM (inactive) with A498; 23.2 µM (inactive) in the test with CCRF-CEM; 14.5 µM (inactive) with MDA-MB-435; 24.7 µM (inactive) with MDA-N. The GI50 with SR was 22.1 µM (inactive); in the test with TK-10, 25.8 µM (inactive); in the test with Hs-578T, 42 µM (inactive); with CAKI-1 it was 31.1 µM (inactive); in the test on RXF 393 it was 24.3 µM (inactive); with DU-145, 29.8 µM (inactive). Further, the GI50 was 15.6 µM (inactive) in the test with SK-MEL-2; 31.1 µM (inactive) in the test with SW-620; 30.1 µM (inactive) in the test on HT-29; 32.1 µM (inactive) in the test with NCI/ADR-RES; 20.7 µM (inactive) with PC-3.
Regarding `CC12CC(C/C1=N/O)C(C)(C)C2` (configuration not stated), the GI50 in the test with 786-0, in the test with MDA-MB-231, in the test with A498, with CCRF-CEM, in the test on SNB-75 and in the test with MDA-MB-435 was > 100 µM (inactive) throughout. For the same molecule, the GI50 in the test with MDA-N, with TK-10, in the test on Hs-578T, in the test on CAKI-1, in the test with RXF 393 and with DU-145 was > 100 µM (inactive) in each case. The GI50 with T47D, in the test on SW-620, with HT-29, in the test on SF-539 and with PC-3 was > 100 µM (inactive) each time.
In the case of `C=CCn1c(=O)c(-c2ccccc2)c(O)c2ccccc21`, the GI50 with 786-0 was > 100 µM (inactive); in the test on MDA-MB-231 it was > 100 µM (inactive); in the test on A498 it was > 100 µM (inactive); in the test with CCRF-CEM, > 100 µM (inactive); in the test with SNB-75 it was 94 µM (inactive); in the test with MDA-MB-435 it was > 100 µM (inactive). Moreover, the GI50 in the test on MDA-N, in the test on SR, with TK-10, with Hs-578T, in the test with CAKI-1 and in the test on RXF 393 was > 100 µM (inactive) in each case. In addition, the GI50 with DU-145, in the test on SW-620, in the test on HT-29, in the test on NCI/ADR-RES, in the test with SF-539 and with PC-3 was > 100 µM (inactive) throughout.
For the molecule `O=C(NCC1Nc2ccncc2S(=O)(=O)N1)c1ccc(Br)cc1` (configuration not stated), the GI50 in the test on 786-0 was > 100 µM (inactive); in the test with MDA-MB-231, 20.1 µM (inactive); with A498 it was > 100 µM (inactive); with SNB-75, 73.6 µM (inactive); in the test on MDA-MB-435, 19.6 µM (inactive); in the test on MDA-N, 23.7 µM (inactive). The GI50 with TK-10 was > 100 µM (inactive); in the test on Hs-578T, 32.2 µM (inactive); in the test with CAKI-1 it was > 100 µM (inactive); in the test on RXF 393 it was > 100 µM (inactive); with DU-145, 77.6 µM (inactive); in the test with SK-MEL-2 it was 14.9 µM (inactive). Besides, the GI50 with T47D was > 100 µM (inactive); with SW-620 it was 41.2 µM (inactive); with HT-29, > 100 µM (inactive); in the test on NCI/ADR-RES it was 59.8 µM (inactive); in the test on PC-3, 17.7 µM (inactive).
`COc1ccc2c(c1)OCC1Cc3ccccc3OC21` (configuration not stated): the GI50 in the test on 786-0 is > 100 µM (inactive); in the test on MDA-MB-231, > 100 µM (inactive); with A498, > 10 µM (inactive); in the test on CCRF-CEM it was > 100 µM (inactive); with SNB-75, > 100 µM (inactive); with MDA-MB-435, > 100 µM (inactive). Further, the GI50 in the test on MDA-N is > 10 µM (inactive); in the test on SR, > 100 µM (inactive); with TK-10 it was > 100 µM (inactive); in the test with CAKI-1, > 100 µM (inactive); in the test on DU-145 it was > 100 µM (inactive); in the test on SK-MEL-2 it was > 100 µM (inactive). Also, the GI50 is > 100 µM (inactive) in the test on T47D; > 100 µM (inactive) in the test on SW-620; > 100 µM (inactive) in the test with HT-29; > 100 µM (inactive) with NCI/ADR-RES; > 100 µM (inactive) in the test on SF-539; 98.4 µM (inactive) in the test on PC-3.

(Values after ChEMBL document CHEMBL1201862, “PubChem BioAssay data set” (2004).)
